Measurements reported in US20260258032A1, “TYROSINE KINASE 2 INHIBITORS AND USES THEREOF” (BIOGEN MA INC., priority 2022, published 2026).
Where a name gives a salt, the structure may show the parent alone.

Target: T1, JH2 domain of human Tyk2 (Homo sapiens, UniProt P29597)
T1 construct: 10×His-tagged TYK2 JH2 domain (amino acid 575-876)
Test: JH2 biochemical assay (TR-FRET probe displacement)
Assay type: binding
Procedure: The inhibitory potency of compounds of the disclosure against the kinase activity of recombinantly generated JH2 domain of human Tyk2 was evaluated in a plate-based assay using a TR-FRET assay platform. Briefly, 2 nM of recombinant JH2 domain [10×His-tagged TYK2 JH2 domain (amino acid 575-876)] was combined with 2 nM probe ((S)-6-amino-9-(2-carboxy-4-((1-(3-(8-methyl-5-(methylamino)-8H-imidazo[4,5-d]thiazolo[5,4-b]pyridin-2-yl)phenyl)ethyl)carbamoyl)phenyl)-3-iminio-5-sulfo-3H-xanthene-4-sulfonate), 0.1 nM Tb-labeled anti-His antibody, and compounds of disclosure for 60 minutes. Compounds are tested at either […] top concentration, 10 points of 3-fold dilution. The TR-FRET signal […] by compounds and signal was calculated by taking the ratio of fluorescence at 520 nm and 495 nm. The data was normalized and the percent activity versus log concentration of compound was fitted with a 4-parameter logistic model to generate IC50 curves.

[1] = TR-FRET probe displacement, JH2 domain of human Tyk2

T1 sequence (P29597 575-876): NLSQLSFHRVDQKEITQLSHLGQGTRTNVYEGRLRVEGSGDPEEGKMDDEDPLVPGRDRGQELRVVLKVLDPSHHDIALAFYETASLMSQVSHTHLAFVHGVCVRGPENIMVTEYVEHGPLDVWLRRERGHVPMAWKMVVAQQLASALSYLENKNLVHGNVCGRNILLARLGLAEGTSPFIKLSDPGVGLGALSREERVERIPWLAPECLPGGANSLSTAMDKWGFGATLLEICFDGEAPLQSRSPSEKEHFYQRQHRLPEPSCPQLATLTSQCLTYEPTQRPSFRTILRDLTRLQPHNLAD

Structure (SMILES) | IC50 (JH2 biochemical assay) [nM] | IC50 [1] [nM]
CC(=O)Nc1cc2c(cn1)C1(CC1)CN2c1cc(C)nc2cc(C)nn12 [Example 28, N-(1′-(2,5-dimethylpyrazolo[1,5-a]pyrimidin-7-yl)-1′,2′-dihydrospiro[cyclopropane-1,3′-pyrrolo[3,2-c]pyridin]-6′-yl)acetamide] | ≥ 1000 | –
CC(=O)Nc1cc2c(cn1)C1(CCOCC1)CN2c1nccc(C(C)(F)F)n1 [Example 46, N-(1′-(4-(1,1-difluoroethyl)pyrimidin-2-yl)-1′,2,2′,3,5,6-hexahydrospiro[pyran-4,3′-pyrrolo[3,2-c]pyridin]-6′-yl)acetamide] | ≥ 1000 | –
COC1CCCN(c2nc(C)cc(N3CC4(CC4)c4cnc(NC(C)=O)cc43)n2)C1 (stereo not drawn) [Example 230, N-(1′-(2-(3-methoxypiperidin-1-yl)-6-methylpyrimidin-4-yl)-1′,2′-dihydrospiro[cyclopropane-1,3′-pyrrolo[3,2-c]pyridin]-6′-yl)acetamide] | 100 to 1000 | –
CC(=O)Nc1cc2c(cn1)C1(CCNCC1)CN2c1ccnc(C(C)(F)F)n1 [Example 271, N-(1′-(2-(1,1-difluoroethyl)pyrimidin-4-yl)-1′,2′-dihydrospiro[piperidine-4,3′-pyrrolo[3,2-c]pyridin]-6′-yl)acetamide] | ≥ 1000 | –
CC(=O)Nc1cc2c(cn1)C1(CC1)CN2c1nccs1 [Example 77, N-(1′-(thiazol-2-yl)-1′,2′-dihydrospiro[cyclopropane-1,3′-pyrrolo[3,2-c]pyridin]-6′-yl)acetamide trifluoroacetate] | 100 to 1000 | –
CC(=O)Nc1cc2c(cn1)CCN2c1ccnc(C(C)(F)F)n1 [Example 30, N-(1-(2-(1,1-difluoroethyl)pyrimidin-4-yl)-2,3-dihydro-1H-pyrrolo[3,2-c]pyridin-6-yl)acetamide] | 100 to 1000 | –
CC(=O)Nc1cc2c(cn1)C1(CC1)CN2c1cc(-c2cnn(CC#N)c2)nc(C(C)(F)F)n1 [Example 393, N-(1′-(6-(1-(cyanomethyl)-1H-pyrazol-4-yl)-2-(1,1-difluoroethyl)pyrimidin-4-yl)-1′,2′-dihydrospiro[cyclopropane-1,3′-pyrrolo[3,2-c]pyridin]-6′-yl)acetamide] | – | ≤ 10
CC(=O)Nc1cc2c(cn1)C1(CC1)CN2c1cc(C)nc(N2CC(C#N)(CF)C2)n1 [Example 218, N-(1′-(2-(3-cyano-3-(fluoromethyl)azetidin-1-yl)-6-methylpyrimidin-4-yl)-1′,2′-dihydrospiro[cyclopropane-1,3′-pyrrolo[3,2-c]pyridin]-6′-yl)acetamide] | ≤ 10 | –
CC(=O)Nc1cc2c(cn1)C1(CC1)CN2c1cc(C)cc(-c2cnn(CC3CC3)c2)n1 [Example 266, N-(1′-(6-(1-(cyclopropylmethyl)-1H-pyrazol-4-yl)-4-methylpyridin-2-yl)-1′,2′-dihydrospiro[cyclopropane-1,3′-pyrrolo[3,2-c]pyridin]-6′-yl)acetamide trifluoroacetate] | 10 to 100 | –
COC(C)(C)c1nccc(N2CC3(CC3)c3cnc(NC(C)=O)cc32)n1 [Example 132, N-(1′-(2-(2-methoxypropan-2-yl)pyrimidin-4-yl)-1′,2′-dihydrospiro[cyclopropane-1,3′-pyrrolo[3,2-c]pyridin]-6′-yl)acetamide] | 10 to 100 | –
CC(=O)Nc1cc2c(cn1)C1(CCCC1)CN2c1cccc(C(C)(F)F)n1 [Example 45, N-(1′-(6-(1,1-difluoroethyl)pyridin-2-yl)-1′,2′-dihydrospiro[cyclopentane-1,3′-pyrrolo[3,2-c]pyridin]-6′-yl)acetamide] | 100 to 1000 | –
CC(=O)Nc1cc2c(cn1)C1(CC1)CN2c1cc(C)nc(-c2cnn(C3CNC3)c2)n1 [Example 269, N-(1′-(2-(1-(azetidin-3-yl)-1H-pyrazol-4-yl)-6-methylpyrimidin-4-yl)-1′,2′-dihydrospiro[cyclopropane-1,3′-pyrrolo[3,2-c]pyridin]-6′-yl)acetamide trifluoroacetate] | 100 to 1000 | –
CC(=O)Nc1cc2c(cn1)C1(CCCC1)CN2c1nccc(C(C)(F)F)n1 [Example 43, N-(1′-(4-(1,1-difluoroethyl)pyrimidin-2-yl)-1′,2′-dihydrospiro[cyclopentane-1,3′-pyrrolo[3,2-c]pyridin]-6′-yl)acetamide] | 100 to 1000 | –
COC(C)c1nccc(N2CC3(CC3)c3cnc(NC(C)=O)cc32)n1 (stereo not drawn) [Example 131, N-(1′-(2-(1-methoxyethyl)pyrimidin-4-yl)-1′,2′-dihydrospiro[cyclopropane-1,3′-pyrrolo[3,2-c]pyridin]-6′-yl)acetamide] | 10 to 100 | –
CC(=O)Nc1cc2c(cn1)C1(CC1)CN2c1cc(C)[nH]c(=O)n1 [Example 134, N-(1′-(6-methyl-2-oxo-1,2-dihydropyrimidin-4-yl)-1′,2′-dihydrospiro[cyclopropane-1,3′-pyrrolo[3,2-c]pyridin]-6′-yl)acetamide] | ≥ 1000 | –
CC(=O)Nc1cc2c(cn1)C1(CCNCC1)CN2c1nccc(C(C)(F)F)n1 [Example 270, N-(1′-(4-(1,1-difluoroethyl)pyrimidin-2-yl)-1′,2′-dihydrospiro[piperidine-4,3′-pyrrolo[3,2-c]pyridin]-6′-yl)acetamide] | ≥ 1000 | –
CC(=O)Nc1cc2c(cn1)CCN2c1cccc(C2CCOC2)n1 (stereo not drawn) [Example 33, N-(1-(6-(tetrahydrofuran-3-yl)pyridin-2-yl)-2,3-dihydro-1H-pyrrolo[3,2-c]pyridin-6-yl)acetamide] | 10 to 100 | –
CC(=O)Nc1cc2c(cn1)C1(CCNCC1)CN2c1cccc(C(C)(F)F)n1 [Example 272, N-(1′-(6-(1,1-difluoroethyl)pyridin-2-yl)-1′,2′-dihydrospiro[piperidine-4,3′-pyrrolo[3,2-c]pyridin]-6′-yl)acetamide] | ≥ 1000 | –
CC(=O)Nc1cc2c(cn1)C1(CC1)CN2c1cc(C)nc(OCC(F)(F)F)n1 [Example 361, N-(1′-(6-methyl-2-(2,2,2-trifluoroethoxy)pyrimidin-4-yl)-1′,2′-dihydrospiro[cyclopropane-1,3′-pyrrolo[3,2-c]pyridin]-6′-yl)acetamide trifluoroacetate] | 10 to 100 | –
CC(=O)Nc1cc2c(cn1)C1(CC1)CN2c1cc(C)ncn1 [Example 27, N-(1′-(6-methylpyrimidin-4-yl)-1′,2′-dihydrospiro[cyclopropane-1,3′-pyrrolo[3,2-c]pyridin]-6′-yl)acetamide] | 10 to 100 | –
CC(=O)Nc1cc2c(cn1)C1(CC1)CN2c1cc(C)cc(-c2cn(C)nc2C(F)(F)F)n1 [Example 261, N-(1′-(4-methyl-6-(1-methyl-3-(trifluoromethyl)-1H-pyrazol-4-yl)pyridin-2-yl)-1′,2′-dihydrospiro[cyclopropane-1,3′-pyrrolo[3,2-c]pyridin]-6′-yl)acetamide trifluoroacetate] | ≥ 1000 | –
CC(=O)Nc1cc2c(cn1)C1(CC1)CN2c1cc(C)nc(C2CCCN(C)C2)n1 (stereo not drawn) [Example 117, N-(1′-(6-methyl-2-(1-methylpiperidin-3-yl)pyrimidin-4-yl)-1′,2′-dihydrospiro[cyclopropane-1,3′-pyrrolo[3,2-c]pyridin]-6′-yl)acetamide] | ≥ 1000 | –
CC(=O)Nc1cc2c(cn1)C1(CC1)CN2c1nc(C)cc(=O)[nH]1 [Example 135, N-(1′-(4-methyl-6-oxo-1,6-dihydropyrimidin-2-yl)-1′,2′-dihydrospiro[cyclopropane-1,3′-pyrrolo[3,2-c]pyridin]-6′-yl)acetamide] | ≥ 1000 | –
CC(=O)Nc1cc2c(cn1)C1(CC1)CN2c1cc(C)nc(C2CCCCN2C)n1 (stereo not drawn) [Example 118, N-(1′-(6-methyl-2-(1-methylpiperidin-2-yl)pyrimidin-4-yl)-1′,2′-dihydrospiro[cyclopropane-1,3′-pyrrolo[3,2-c]pyridin]-6′-yl)acetamide] | ≥ 1000 | –
CC(=O)Nc1cc2c(cn1)C1(CCCC1)CN2c1ccnc(C(C)(F)F)n1 [Example 44, N-(1′-(2-(1,1-difluoroethyl)pyrimidin-4-yl)-1′,2′-dihydrospiro[cyclopentane-1,3′-pyrrolo[3,2-c]pyridin]-6′-yl)acetamide] | 100 to 1000 | –
CC(=O)Nc1cc2c(cn1)C1(CC1)CN2c1ncc(C)s1 [Example 78, N-(1′-(5-methylthiazol-2-yl)-1′,2′-dihydrospiro[cyclopropane-1,3′-pyrrolo[3,2-c]pyridin]-6′-yl)acetamide trifluoroacetate] | 10 to 100 | –
CC(=O)Nc1cc2c(cn1)C1(CCC1)CN2c1nccc(C(C)(F)F)n1 [Example 40, N-(1′-(4-(1,1-difluoroethyl)pyrimidin-2-yl)-1′,2′-dihydrospiro[cyclobutane-1,3′-pyrrolo[3,2-c]pyridin]-6′-yl)acetamide] | 10 to 100 | –
CC(=O)Nc1cc2c(cn1)C1(CC1C)CN2c1nccc(C(C)(F)F)n1 (stereo not drawn) [Example 36, N-(1′-(4-(1,1-difluoroethyl)pyrimidin-2-yl)-2-methyl-1′,2′-dihydrospiro[cyclopropane-1,3′-pyrrolo[3,2-c]pyridin]-6′-yl)acetamide] | 10 to 100 | –
CC(=O)Nc1cc2c(cn1)C1(CC1)CN2c1cc(C)nc(OCC2CCO2)n1 (stereo not drawn) [Example 380, N-(1′-(6-methyl-2-(oxetan-2-ylmethoxy)pyrimidin-4-yl)-1′,2′-dihydrospiro[cyclopropane-1,3′-pyrrolo[3,2-c]pyridin]-6′-yl)acetamide trifluoroacetate] | – | 10 to 100
CC(=O)Nc1cc2c(cn1)C1(CC1)CN2c1cc(NC(C)=O)nc(C(C)(F)F)n1 [Example 15, N-(1′-(6-acetamido-2-(1,1-difluoroethyl)pyrimidin-4-yl)-1′,2′-dihydrospiro[cyclopropane-1,3′-pyrrolo[3,2-c]pyridin]-6′-yl)acetamide] | ≤ 10 | –
